The test system of one assay is Human PBMCs. The assay is described as follows: CD3/CD28 mediated PBMC proliferation assay. Format: cell-based. As to conditions: proliferation of human PBMCs stimulated with anti-CD3 and anti-CD28, 72 hours, Cell Titer-Glo. On the procedure:
Inhibition of cellular ITK was assessed by measuring proliferation of PBMCs following stimulation with anti-CD3 and anti-CD28 antibodies. Individual wells of 96 well tissue culture plates were coated with 50 μL of 5 μg/mL anti-CD3 (OKT3, eBiosciences) for 2 hours at 37° C. Human PBMCs (Stemcell Technologies catalog #70025.3) were plated in 96-well plates at a final concentration of 9.2×10e5 cells/mL in complete media (RPMI, 10% heat inactivated FBS, 55 uM β-mercaptoethanol) and pre-treated with compound curves for 30 minutes at 37° C., 5% CO2. Pre-treated cells plus compounds were transferred to washed anti-CD3 coated plates. Soluble anti-CD28 (CD28.2 eBiosciences) was added to each well at a final concentration of 2 μg/mL. The cells were placed in a humidified 37° C. incubator with 5% CO2 for 72 hours and metabolic viability was measured by quantification of ATP levels with Cell Titer-Glo (Promega catalog # G9242). Controls included unstimulated cells and vehicle alone. EC50 values (50% proliferation in the presence of compound as compared to vehicle treated controls) were calculated from dose response compound curves using GraphPad Prism Software.
(In ATP-based viability assays light output follows the ATP content of the culture.)

Assay [1] has as its system Jurkat human acute T cell leukemia cells. The assay is described as follows: Jurkat IL-2 release assay. As to conditions: IL-2 release from Jurkat cells stimulated with anti-CD3 and anti-CD28, 48 hours, ELISA. Format: cell-based. The protocol:
Inhibition of cellular ITK was assessed by measuring release of IL-2 following stimulation with anti-CD3 and anti-CD28 antibodies. Individual wells of 96 well tissue culture plates were coated with 50 μL of 10 μg/mL anti-CD3 (OKT3, eBiosciences) for 2 hours at 37° C. Jurkat human acute T cell leukemia cells (ATCC) were plated in 96-well plates at a final concentration of 9.2×10e5 cells/mL in complete media (RPMI, 10% FBS, 1.5 g/L sodium bicarbonate, 10 mM Hepes, 1 mM sodium pyruvate, 4.5 g/L glucose) and pre-treated with compound curves for 30 minutes at 37° C., 5% CO2. Pre-treated cells plus compounds were transferred to washed anti-CD3 coated plates. Soluble anti-CD28 (CD28.2 eBiosciences) was added to each well at a final concentration of 1 μg/mL. The cells were placed in a humidified 37° C. incubator with 5% CO2 for 48 hours and IL-2 release was measured using a commercial ELISA (BD Bioscience catalog #555190). Controls included unstimulated cells and vehicle alone. EC50 values (50% IL-2 release in the presence of compound as compared to vehicle treated controls) were calculated from dose response compound curves using GraphPad Prism Software.
(ELISA stands for enzyme-linked immunosorbent assay.)

Bounds are passed on as bounds.

In general, EC50 refers to the concentration needed to bring the measured effect to its halfway point. Higher therefore signals weaker potency. For the molecule `C=CC(=O)Nc1ccc(-n2c(NC(=O)c3ccc(C(F)F)s3)nc3cc(CN[C@@H](C)C(C)(C)C)ccc32)cc1` [Compound 4], the EC50 in the assay with Human PBMCs was more than 100 nM; in assay [1], 10 to 100 nM.
For `C=CC(=O)N(C)c1cccc(-n2c(NC(=O)c3ccc(C(F)F)s3)nc3cc(CN[C@@H](C)C(C)(C)C)ccc32)c1` [Compound 5], the EC50 in the assay on Human PBMCs was 10 to 100 nM; in assay [1], less than 10 nM.
With `C=CC(=O)N(C)[C@H]1C[C@@H](n2c(NC(=O)c3ccc(C(F)F)s3)nc3cc(CN[C@@H](C)C(C)(C)C)ccc32)C1` [Compound 6], the EC50 was 10 to 100 nM with Human PBMCs and less than 10 nM in assay [1].
The matching figures for `C=CC(=O)Nc1cccc(-n2c(NC(=O)c3cccc(F)c3)nc3cc(CN[C@@H](C)C(C)(C)C)ccc32)c1` [Compound 7]: 10 to 100 nM and 10 to 100 nM.
`C=CC(=O)Nc1cccc(-n2c(NC(=O)c3cccc(OC)c3)nc3cc(CN[C@@H](C)C(C)(C)C)ccc32)c1` [Compound 8]: the EC50 with Human PBMCs is more than 100 nM; in assay [1], 10 to 100 nM.
For the molecule `C=CC(=O)Nc1cccc(-n2c(NC(=O)c3ccc(Cl)cc3)nc3cc(CN[C@@H](C)C(C)(C)C)ccc32)c1` [Compound 10], the 50% effective concentration (EC50) (with Human PBMCs; in assay [1]) was 10 to 100 nM each time.
`C=CC(=O)Nc1cccc(-n2c(NC(=O)c3cccs3)nc3cc(CN[C@@H](C)C(C)(C)C)ccc32)c1` [Compound 13]: the concentration for a half-maximal effect (EC50) (in the assay on Human PBMCs; in assay [1]) was 10 to 100 nM each time.
As to `C=CC(=O)Nc1cccc(-n2c(NC(=O)c3ccc(C(F)F)s3)nc3cc(CNC4CCCCC4)ccc32)c1` [Compound 14], the EC50 with Human PBMCs was 10 to 100 nM; in assay [1], less than 10 nM.
The matching figures for `C=CC(=O)Nc1cccc(-n2c(NC(=O)c3cccc(Cl)c3)nc3cc(CN[C@@H](C)C(C)(C)C)ccc32)c1` [Compound 15]: 10 to 100 nM and 10 to 100 nM.
With `C=CC(=O)Nc1cccc(-n2c(NC(=O)c3ccc(F)cc3)nc3cc(CN[C@@H](C)C(C)(C)C)ccc32)c1` [Compound 20], the EC50 in the assay on Human PBMCs is more than 100 nM; in assay [1] it was 10 to 100 nM.
The matching figures for `C=CC(=O)Nc1cccc(-n2c(NC(=O)c3ccc(C(F)F)s3)nc3cc(CN[C@@H](C)CC)ccc32)c1` [Compound 21]: less than 10 nM and 10 to 100 nM.
The matching figures for `C=CC(=O)Nc1cccc(-n2c(NC(=O)c3ccc(C(F)F)s3)nc3cc(CN[C@@H](CO)C(C)(C)C)ccc32)c1` [Compound 22]: less than 10 nM and less than 10 nM.
Consider `C=CC(=O)Nc1cccc(-n2c(NC(=O)c3ccc(C(F)F)s3)nc3cc(CNCC(C)(C)C)ccc32)c1` [Compound 23], for which the concentration giving a half-maximal response (EC50) (in the assay with Human PBMCs; in assay [1]) was less than 10 nM throughout.
For `C=CC(=O)Nc1cccc(-n2c(NC(=O)c3ccc(OC)cc3)nc3cc(CN[C@@H](C)C(C)(C)C)ccc32)c1` [Compound 24], the half-maximal effective concentration (EC50) (with Human PBMCs; in assay [1]) was more than 100 nM throughout.
For `C=CC(=O)Nc1cccc(-n2c(NC(=O)c3cccc(O)c3)nc3cc(CN[C@@H](C)C(C)(C)C)ccc32)c1` [Compound 26], the EC50 was more than 100 nM in the assay on Human PBMCs and 10 to 100 nM in assay [1].
`C=CC(=O)Nc1cccc(-n2c(NC(=O)c3ccc(C(F)F)s3)nc3cc(CN4CCC[C@@H]4CO)ccc32)c1` [Compound 44] gave an EC50 in the assay with Human PBMCs of less than 10 nM.
For the molecule `C=CC(=O)Nc1cccc(-n2c(NC(=O)c3ccc(C(F)F)s3)nc3cc(CN4CCC[C@H]4CO)ccc32)c1` [Compound 45], the EC50 in the assay on Human PBMCs is less than 10 nM.
For `C=CC(=O)Nc1cccc(-n2c(NC(=O)c3ccc(C(F)F)s3)nc3cc(CNCCOCCOC)ccc32)c1` [Compound 46], the 50% effective concentration (EC50) in the assay on Human PBMCs fell in the range of 10 to 100 nM.
`C=CC(=O)Nc1cccc(-n2c(NC(=O)c3ccc(C(F)F)s3)nc3cc(CN[C@H](CO)C(C)(C)C)ccc32)c1` [Compound 47]: in the assay on Human PBMCs, the EC50 was less than 10 nM.
As to `C=CC(=O)Nc1cccc(-n2c(NC(=O)c3ccc(C(F)F)s3)nc3cc(C(=O)N(C)C4CCCCC4)ccc32)c1` [Compound 48], the EC50 in the assay with Human PBMCs lay within 10 to 100 nM.
The same measure, in the same setting: in the case of `C=CC(=O)Nc1cccc(-n2c(NC(=O)c3cnn(C)c3)nc3cc(CN[C@@H](C)C(C)(C)C)ccc32)c1` [Compound 49] it was more than 100 nM; in that of `C=CC(=O)Nc1cccc(-n2c(NC(=O)c3ccc(C(F)F)s3)nc3cc(CN[C@H]4CC[C@H](OCCOC)CC4)ccc32)c1` [Compound 51], less than 10 nM; in that of `C=CC(=O)Nc1cccc(-n2c(NC(=O)c3ccc(C(F)F)s3)nc3cc(C(=O)NC4CCCCC4)ccc32)c1` [Compound 53], 10 to 100 nM.
The same measure, in the same setting: in the case of `C=CC(=O)N[C@H]1CC[C@@H](n2c(NC(=O)c3cccnc3)nc3cc(CN[C@@H](C)C(C)(C)C)ccc32)CC1` [Compound 55] it was more than 100 nM.
Same read-out and setting: in the case of `C=CC(=O)N1CCc2ccc(-n3c(NC(=O)c4ccc(C(F)F)s4)nc4cc(CN[C@@H](C)C(C)(C)C)ccc43)cc21` [Compound 56] it was 10 to 100 nM; in that of `C=CC(=O)N(C)[C@H]1CC[C@@H](n2c(NC(=O)c3ccc(C(F)F)s3)nc3cc(CN[C@@H](C)C(C)(C)C)ccc32)CC1` [Compound 58], more than 100 nM; in that of `C=CC(=O)Nc1cccc(-n2c(NC(=O)c3ccc(C(F)F)s3)nc3cc(CN[C@H]4CC[C@@H](OCCOC)CC4)ccc32)c1` [Compound 60], less than 10 nM.
`C=CC(=O)Nc1cccc(-n2c(NC(=O)c3ccc(C(F)F)s3)nc3cc(CN4C[C@@H](C)O[C@@H](C)C4)ccc32)c1` [Compound 61] yielded an EC50 with Human PBMCs of less than 10 nM.
Still for that read-out and setting: in the case of `C=CC(=O)N[C@H]1C[C@@H](n2c(NC(=O)c3ccc(C(F)F)s3)nc3cc(N(C)C(=O)C4CCCCC4)ccc32)C1` [Compound 63] it was more than 100 nM; in that of `C=CC(=O)N[C@H]1C[C@@H](n2c(NC(=O)c3ccc(C(F)F)s3)nc3cc(NC(=O)C4CCCCC4)ccc32)C1` [Compound 64], more than 100 nM.
Still for that read-out and setting: in the case of `C=CC(=O)N[C@H]1C[C@@H](n2c(NC(=O)c3ccc(C(F)F)s3)nc3cc(C(=O)N(C)C4CCCCC4)ccc32)C1` [Compound 65] it was more than 100 nM.
In turn, `C=CC(=O)Nc1cccc(-n2c(NC(=O)c3ccc(C(F)F)s3)nc3cc(CNCCCOCCOCCCNC(C)=O)ccc32)c1` [Compound 66] yielded a concentration for a half-maximal effect (EC50) in the assay on Human PBMCs of 10 to 100 nM.
Regarding `C=CC(=O)Nc1cccc(-n2c(NC(=O)c3ccc(C(F)F)s3)nc3cc(CO)ccc32)c1` [Compound 69], the concentration for a half-maximal effect (EC50) with Human PBMCs was 10 to 100 nM.
`C=CC(=O)N[C@H]1C[C@@H](n2c(NC(=O)c3ccc(C(F)F)s3)nc3cc(C(=O)NC4CCCCC4)ccc32)C1` [Compound 70] showed an EC50 with Human PBMCs of more than 100 nM.
On the same count and under the same terms, in the case of `C=CC(=O)N[C@H]1CC[C@@H](n2c(NC(=O)c3ccc(-c4cnco4)s3)nc3cc(CN[C@@H](C)C(C)(C)C)ccc32)CC1` [Compound 71] it was 10 to 100 nM; in that of `C=CC(=O)Nc1cccc(-n2c(NC(=O)c3ccno3)nc3cc(CN[C@H]4CC[C@H](O)CC4)ccc32)c1` [Compound 74], more than 100 nM.
Still for that read-out and setting: in the case of `C=CC(=O)Nc1cccc(-n2c(NC(=O)c3ccns3)nc3cc(CN[C@H]4CC[C@H](O)CC4)ccc32)c1` [Compound 75] it was more than 100 nM; in that of `C=CC(=O)Nc1cccc(-n2c(NC(=O)c3ccc(C(F)F)s3)nc3cc(OCc4ccccc4)ccc32)c1` [Compound 79], more than 100 nM.
The molecule `C=CC(=O)Nc1cccc(-n2c(NC(=O)c3cnc(C(C)C)s3)nc3cc(CN[C@@H](C)C(C)(C)C)ccc32)c1` [Compound 82] gave an EC50 in assay [1] of 10 to 100 nM.
In the assay with Human PBMCs, `C/C=C/C(=O)Nc1cccc(-n2c(NC(=O)c3ccc(C(F)F)s3)nc3cc(CN[C@@H](C)C(C)(C)C)ccc32)c1` [Compound 83] had an EC50 of more than 100 nM.

For the origin of these results see patent publication US10562893B2, “Benzimidazoles derivatives as Tec kinases family inhibitors” (GB005, Inc., priority 2015, dated 2020).
